Like-named read-outs stand apart in the source and are kept apart here.

For orientation: IC50 means the point on the concentration scale where inhibition reaches its midpoint. Usually EC50 stands for the concentration at which the effect is half-maximal.

Assay [1] addresses K-Ras G12C(GMP-PNP) binding to BRAF RBD (Homo sapiens (Human), UniProt P01116+P62937, G12C). Put plainly: Disruption of BRAF RBD interaction with K-Ras (FRET / MOA assay), K-Ras G12C. The format is biochemical. A digest of the protocol:
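TR-FRET readout: after 3 h compound incubation at 25 °C, anti-His Eu and anti-GST allophycocyanin (10 and 50 nM final) added for a further 1.5 h. Dilution series was 10-point, 3-fold, top 30 μM final. Ras–cyclophilin A ternary complex formation blocks the BRAF RBD interaction; IC50 derived from reduced FRET ratio relative to DMSO.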

The subject of assay [2] is K-Ras G12C (NCI-H358 cells). Put plainly: Potency assay: pERK in NCI-H358 cells. The format is cell-based, human. The settings on record: Homo sapiens, read-out: pERK EC50 (H358 KRAS G12C). Put shortly: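 Cells plated the day before were exposed for 4 h at 37° C, 5% CO2 to a 10-point, 3-fold DMSO dilution series (10 mM top stock), in duplicate. Phospho-ERK was read by AlphaLISA SureFire Ultra or by In-Cell Western with DRAQ5 DNA stain, and IC50 came from a 4-parameter sigmoidal fit.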

Assay [3] has as its system Capan-1 cells (K-Ras G12V). Put plainly: CellTiter-Glo cell viability, Capan-1. The assay is classed as cell-based, human. The settings on record: Homo sapiens, CAPAN-1, 120 h, read-out: Capan-1 Cell Viability IC50. A digest of the protocol:
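Viability is read as luminescence after five days of compound exposure, with plates first equilibrated to room temperature for roughly 30 minutes. Each signal is expressed as a percentage of the mean DMSO control, and curves are fitted by four-parameter logistic regression.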
In general terms: In ATP-based viability assays light output follows the ATP content of the culture.

Chain of K-Ras G12C(GMP-PNP) binding to BRAF RBD (P01116 other isoform, or with tags, fused parts or gaps G12C): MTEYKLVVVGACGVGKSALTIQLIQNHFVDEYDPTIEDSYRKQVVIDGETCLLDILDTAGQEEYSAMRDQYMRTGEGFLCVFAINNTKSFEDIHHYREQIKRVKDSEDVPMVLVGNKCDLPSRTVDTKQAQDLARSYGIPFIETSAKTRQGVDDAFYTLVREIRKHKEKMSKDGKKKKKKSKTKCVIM
Chain of K-Ras G12C(GMP-PNP) binding to BRAF RBD (P62937 whole entry): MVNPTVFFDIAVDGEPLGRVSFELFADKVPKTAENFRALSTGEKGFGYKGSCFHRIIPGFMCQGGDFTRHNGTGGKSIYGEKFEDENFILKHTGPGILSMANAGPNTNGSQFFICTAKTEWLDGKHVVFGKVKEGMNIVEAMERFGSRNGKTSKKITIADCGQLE

On to `CCn1c(-c2cc(N3CCN(C)CC3)cnc2[C@H](C)OC)c2c3cc(ccc31)-c1csc(n1)C[C@H](NC(=O)[C@H](C(C)C)N(C)C(=O)N1CC(OC)C1)C(=O)N1CCC[C@H](N1)C(=O)OCC(C)(C)C2` [Compound A466], for which, in assay [1] (KRAS G12C FRET IC50), the concentration for half-maximal inhibition (IC50) lay in the range of 10 to 100 nM. Besides, the EC50 in assay [2] (NCI-H358 cells, 4 hours) was below 5 µM.

Consider `CCn1c(-c2cccnc2[C@H](C)OC)c2c3cc(ccc31)-c1csc(n1)[C@@H](OC)[C@H](NC(=O)[C@H](C(C)C)N(C)C(=O)N(C)C)C(=O)N1CCC[C@H](N1)C(=O)OCC(C)(C)C2` [Compound A598, (2S)—N-((6^3S,3S,4S,Z)-1^1-ethyl-3-methoxy-1^2-(2-((S)-1-methoxyethyl)pyridin-3-yl)-10,10-dimethyl-5,7-dioxo-6^1,6^2,6^3,6^4,6^5,6^6-hexahydro-1^1H-8-oxa-2 (4,2)-thiazola-1 (5,3)-indola-6 (1,3)-pyridazinacycloundecaphane-4-yl)-3-methyl-2-(1,3,3-trimethylureido) butanamide], for which the IC50 is 10 to 100 nM in assay [1] (read-out: KRAS G12C FRET IC50) and 100 to 1000 nM in assay [3]. Also, the concentration for a half-maximal effect (EC50) in assay [2] (NCI-H358, 4 h) was below 5 µM.

Consider `CCn1c(-c2cccnc2[C@H](C)OC)c2c3cc(ccc31)-c1csc(n1)C[C@H](NC(=O)[C@H](C(C)C)N(C)C(=O)N1CCO[C@@]3(CCN(C)C3)C1)C(=O)N1CCC[C@H](N1)C(=O)OCC(C)(C)C2` [Compound A436], for which the half-inhibitory concentration (IC50) in assay [1] (read-out: KRAS G12C FRET IC50) was in the range of 10 to 100 nM; in assay [3] (K-Ras G12V, 5-day treatment) it was 10 to 100 nM. Further, the EC50 in assay [2] (NCI-H358 cells, 4 hours) was below 5 µM.

For `CCn1c(-c2cccnc2[C@H](C)OC)c2c3cc(ccc31)-c1cccc(c1)C[C@H](NC(=O)[C@H](C(C)C)N(C)C(=O)[C@H]1CCNC1)C(=O)N1CCC[C@H](N1)C(=O)OCC(C)(C)C2` [Compound A119], the IC50 in assay [1] (read-out: KRAS G12C FRET IC50) is 100 to 1000 nM; in assay [3] (K-Ras G12V, 5-day treatment), above 10000 nM. In addition, the concentration for a half-maximal effect (EC50) in assay [2] (NCI-H358 cells, 4 hours) is below 5 µM.

Take `CCn1c(-c2cccnc2[C@H](C)OC)c2c3cc(ccc31)-c1csc(n1)C[C@H](NC(=O)[C@H](C(C)C)N(C)C(=O)N1CCCC13CN(C)C3)C(=O)N1CCC[C@H](N1)C(=O)OCC(C)(C)C2` [Compound A545]: the half-inhibitory concentration (IC50) in assay [1] (read-out: KRAS G12C FRET IC50) lay within 10 to 100 nM; in assay [3] (K-Ras G12V, 5-day treatment), 100 to 1000 nM. Also, the EC50 in assay [2] (NCI-H358 cells, 4 hours) is below 5 µM.

On to `CCn1c(-c2cccnc2[C@H](C)OC)c2c3cc(ccc31)-c1cccc(c1)C[C@H](NC(=O)[C@H](C(C)C)N(C)C(=O)[C@@H]1OCC[C@@H]1c1ccccc1)C(=O)N1CCC[C@H](N1)C(=O)OCC(C)(C)C2` [Compound A586], for which, in assay [3] (K-Ras G12V, 5-day treatment), the IC50 fell in the range of 100 to 1000 nM. In assay [2] (NCI-H358 cells, 4 hours), the EC50 is below 5 µM.

Consider `CCn1c(-c2cccnc2[C@H](C)OC)c2c3cc(ccc31)-c1cccc(c1)C[C@H](NC(=O)[C@H](C(C)C)N(C)C(C)=O)C(=O)N1CCC[C@H](N1)C(=O)OCC(C)(C)C2` [Compound A61], for which, in assay [3] (K-Ras G12V, 5-day treatment), the IC50 lay within 1000 to 10000 nM. Also, the EC50 in assay [2] (NCI-H358 cells, 4 hours) is below 5 µM.

`CCn1c(-c2cccnc2[C@H](C)OC)c2c3cc(ccc31)-c1csc(n1)C[C@H](NC(=O)[C@H](C(C)C)N(C)C(=O)N1CC[C@@H](F)[C@H](N)C1)C(=O)N1CCC[C@H](N1)C(=O)OCC(C)(C)C2` [Compound A559]: in assay [3] (K-Ras G12V, 5-day treatment), the IC50 fell in the range of 100 to 1000 nM. For the same compound, in assay [2] (NCI-H358 cells, 4 hours), the EC50 is below 5 µM.

Turning to `CCn1c(-c2cccnc2[C@H](C)OC)c2c3cc(ccc31)-c1csc(n1)C[C@H](NC(=O)[C@H](C(C)C)N(CCc1ccncc1)C1CC1)C(=O)N1CCC[C@H](N1)C(=O)OCC(C)(C)C2` [Compound A556], in assay [3] (K-Ras G12V, 5-day treatment), the IC50 fell in the range of 100 to 1000 nM. In addition, the EC50 in assay [2] (NCI-H358 cells, 4 hours) is below 5 µM.

With `CCn1c(-c2cccnc2[C@H](C)OC)c2c3cc(ccc31)-c1csc(n1)C[C@H](NC(=O)[C@H](C(C)C)N(C)C(=O)[C@@H]1OCC[C@@H]1c1ccccc1)C(=O)N1CCC[C@H](N1)C(=O)OCC(C)(C)C2` [Compound A585], the IC50 in assay [3] (K-Ras G12V, 5-day treatment) lay in the range of 100 to 1000 nM. The EC50 in assay [2] (NCI-H358 cells, 4 hours) was below 5 µM.

For the compound `CCn1c(-c2cccnc2[C@H](C)OC)c2c3cc(ccc31)-c1cc(O)cc(c1)C[C@H](NC(=O)[C@H](C(C)C)N(C)C(=O)[C@]1(F)CCN(C(=O)OC)C1)C(=O)N1CCC[C@H](N1)C(=O)OCC(C)(C)C2` [Compound A616], the concentration for half-maximal inhibition (IC50) in assay [3] (K-Ras G12V, 5-day treatment) lay in the range of 100 to 1000 nM. In assay [2] (NCI-H358 cells, 4 hours), the EC50 was below 5 µM.

On to `CCn1c(-c2cccnc2[C@H](C)OC)c2c3cc(ccc31)-c1csc(n1)C[C@H](NC(=O)[C@H](C(C)C)N(C)C(=O)N1CCC[C@@H]1CN(C)C)C(=O)N1CCC[C@H](N1)C(=O)OCC(C)(C)C2` [Compound A518], for which the IC50 in assay [3] (K-Ras G12V, 5-day treatment) lay within 10 to 100 nM. For the same compound, the 50% effective concentration (EC50) in assay [2] (NCI-H358 cells, 4 hours) is below 5 µM.

For `CCn1c(-c2cccnc2[C@H](C)OC)c2c3cc(ccc31)-c1csc(n1)C[C@H](NC(=O)[C@H](C(C)C)N(C)C(=O)[C@H]1CCN(C(=O)CN(C)C)C1)C(=O)N1CCC[C@H](N1)C(=O)OCC(C)(C)C2` [Compound A97], in assay [3] (K-Ras G12V, 5-day treatment), the IC50 lay in the range of 1000 to 10000 nM. The EC50 in assay [2] (NCI-H358 cells, 4 hours) was below 5 µM.

As for `CCn1c(-c2cccnc2[C@H](C)OC)c2c3cc(ccc31)-c1csc(n1)C[C@H](NC(=O)C1(F)CCC1)C(=O)N1CCC[C@H](N1)C(=O)OCC(C)(C)C2` [Compound A361], the 50% inhibitory concentration (IC50) in assay [3] (K-Ras G12V, 5-day treatment) is 100 to 1000 nM. Moreover, in assay [2] (NCI-H358 cells, 4 hours), the EC50 was below 5 µM.

For the compound `CCn1c(-c2cccnc2[C@H](C)OC)c2c3cc(ccc31)-c1cc(O)cc(c1)C[C@H](NC(=O)[C@H](C(C)C)N(C)C(=O)C1CNCCNC1)C(=O)N1CCC[C@H](N1)C(=O)OCC(C)(C)C2` [Compound A432], the IC50 in assay [1] (read-out: KRAS G12C FRET IC50) fell in the range of 10 to 100 nM. Moreover, the EC50 in assay [2] (NCI-H358 cells, 4 hours) was below 5 µM.

Regarding `CCn1c(-c2cccnc2[C@H](C)OC)c2c3cc(ccc31)-c1csc(n1)C[C@H](NC(=O)[C@H](C(C)C)N(C)C(=O)N1CCC[C@H]1c1ccccc1)C(=O)N1CCC[C@H](N1)C(=O)OCC(C)(C)C2` [Compound A599], the IC50 in assay [3] (K-Ras G12V, 5-day treatment) was in the range of 1000 to 10000 nM. Also, the EC50 in assay [2] (NCI-H358 cells, 4 hours) was below 5 µM.

`CCn1c(-c2cccnc2[C@H](C)OC)c2c3cc(ccc31)-c1csc(n1)C[C@H](NC(=O)C1(F)CC1)C(=O)N1CCC[C@H](N1)C(=O)OCC(C)(C)C2` [Compound A362]: the IC50 in assay [3] (K-Ras G12V, 5-day treatment) lay within 100 to 1000 nM. The concentration giving a half-maximal response (EC50) in assay [2] (NCI-H358 cells, 4 hours) is below 5 µM.

As for `CCn1c(-c2cccnc2[C@H](C)OC)c2c3cc(ccc31)-c1csc(n1)C[C@H](NC(=O)[C@H](C(C)C)N1C[C@@H](c3ccccc3)CC1=O)C(=O)N1CCC[C@H](N1)C(=O)OCC(C)(C)C2` (single isomer, unassigned) [Compound A544], the IC50 in assay [3] (K-Ras G12V, 5-day treatment) lay within 100 to 1000 nM. Further, the EC50 in assay [2] (NCI-H358 cells, 4 hours) was below 5 µM.

For `CCn1c(-c2cccnc2[C@H](C)OC)c2c3cc(ccc31)-c1cc(O)cc(c1)C[C@H](NC(=O)[C@@H](C(C)C)N(C)C(C)=O)C(=O)N1CCC[C@H](N1)C(=O)OCC(C)(C)C2` [Compound A256], the concentration for a half-maximal effect (EC50) in assay [2] (NCI-H358 cells, 4 hours) is below 5 µM.

As to `CCn1c(-c2cc(N3CCN(C)CC3)cnc2[C@H](C)OC)c2c3cc(ccc31)-c1csc(n1)C[C@H](NC(=O)[C@H](C(C)C)N(C)C(=O)[C@H]1CCCS1(=O)=O)C(=O)N1CCC[C@H](N1)C(=O)OCC(C)(C)C2` [Compound A439], the IC50 in assay [3] (K-Ras G12V, 5-day treatment) fell in the range of 10 to 100 nM. Also, the concentration for a half-maximal effect (EC50) in assay [2] (NCI-H358 cells, 4 hours) is below 5 µM.

As to `CCn1c(-c2cccnc2[C@H](C)OC)c2c3cc(ccc31)-c1cc(O)cc(c1)C[C@H](NC(=O)[C@H](C(C)C)N(C)C(=O)[C@H]1OCC[C@H]1c1ccccc1)C(=O)N1CCC[C@H](N1)C(=O)OCC(C)(C)C2` [Compound A425], the IC50 in assay [1] (read-out: KRAS G12C FRET IC50) was below 10 nM. Besides, in assay [2] (NCI-H358 cells, 4 hours), the concentration giving a half-maximal response (EC50) was below 5 µM.

For the compound `CCn1c(-c2cccnc2[C@H](C)OC)c2c3cc(ccc31)-c1cc(O)cc(c1)C[C@H](NC(=O)[C@H](C(C)C)N(C)C(=O)[C@H]1CCN(C(C)=O)C1)C(=O)N1CCC[C@H](N1)C(=O)OCC(C)(C)C2` [Compound A5], the IC50 in assay [3] (K-Ras G12V, 5-day treatment) fell in the range of 100 to 1000 nM. In assay [2] (NCI-H358 cells, 4 hours), the EC50 was below 5 µM.
